Columns and labels:
CD20 in Raji cells = test: Cell surface abundance of CD20 by staining and flow cytometry in Raji cells; type: cell-based, human; details: 0.25-4.0 μM, 48 hours, MFI, FIG. 2A/2B
Description: (§1) Cells were treated with increasing concentrations of Compound A (i.e., 0.25 μM, 0.5 μM, 1.0 μM, 2.0 μM, and 4.0 μM) for 48 hours and processed for cell surface abundance of CD20 protein and mRNA in Raji cells. The treated Raji cells were stained for IgG2bK-APC and CD20-APC. The dotted line indicates median of DMSO treatment. The quantification of mean fluorescence intensity (MFI) following cell surface staining and flow cytometry of Raji cells is shown in FIG. 2B. Each sample was background subtracted, where the IgG2bK-APC median MFI in Raji cells was used as the background. […] Together, increased CD20 expression triggered by Compound A can be a potential mechanism for the in vivo combination effect on the Raji cell model. Compound A induced CD20 mRNA expression and cell surface abundance of CD20 on Raji cells. That can be a potential mechanism for the synergistic effect of Compound A with rituximab.

CD20 mRNA in Raji cells = test: CD20 mRNA expression relative to RPLP1 in Raji cells; type: cell-based, human; details: 0.25-4.0 μM, 48 hours, FIG. 2D
Description: as §1

CD20 in Jeko cells = test: Cell surface abundance of CD20 by staining and flow cytometry in Jeko cells; type: cell-based; details: 0.25-4.0 μM, 48 hours, MFI, FIG. 3A/3B
Description: (§2) Cells were treated with increasing concentrations of Compound A (i.e., 0.25 μM, 0.5 μM, 1.0 μM, 2.0 μM, and 4.0 μM) for 48 hours and processed for cell surface abundance of CD20 protein and mRNA in Jeko cells. The treated Jeko cells were stained for IgG2bK-APC and CD20-APC. The dotted line indicates median of DMSO treatment. The quantification of mean fluorescence intensity (MFI) following cell surface staining and flow cytometry of Jeko cells is shown in FIG. 3B. Each sample was background subtracted, where the IgG2bK-APC median MFI in Jeko cells was used as the background. […] Compound A induced CD20 mRNA expression and cell surface abundance of CD20 on Jeko cells. That can be a potential mechanism for the synergistic effect of Compound A with rituximab.

CD20 mRNA in Jeko cells = test: CD20 mRNA expression relative to RPLP1 in Jeko cells; type: cell-based; details: 0.25-4.0 μM, 48 hours, FIG. 3D
Description: as §2

O=C(CCCCCCNC(=O)c1cnc(N(c2ccccc2)c2ccccc2Cl)nc1)NO [Compound A, 2-((2-chlorophenyl)(phenyl)amino)-N-(7-(hydroxyamino)-7-oxoheptyl)pyrimidine-5-carboxamide]
induced: cell surface abundance of CD20 (CD20 in Raji cells) | CD20 mRNA expression (CD20 mRNA in Raji cells) | cell surface abundance of CD20 (CD20 in Jeko cells) | CD20 mRNA expression (CD20 mRNA in Jeko cells)

— patent US11324744B2, “Methods of use and pharmaceutical combinations of histone deacetylase inhibitors and CD20 inhibitory antibodies” (Acetylon Pharmaceuticals Inc., priority 2016, dated 2022)
